What all share (test): NCI-60 cell line screen, 48 h
Assay [1] has as its system HCT-15 colon.
Assay [2] concerns SF-268 CNS.
Assay [3] deals with KM20L2 colon.
Assay [4] deals with DLD-1 colon.
The subject of assay [5] is RXF 393 renal.
In assay [6] the test system is DMS 273 small cell lung.
For assay [7], the system named is RPMI-8226 leukemia.
Assay [8] relates to NCI-H522 lung.
Assay [9] concerns COLO 205 colon.
Assay [10] deals with SK-MEL-5 melanoma.
The test system of assay [11] is M19-MEL melanoma.
Assay [12] concerns T-47D breast.
In assay [13] the test system is PC-3 prostate.
Assay [14] has as its system MCF7 breast.
Assay [15] concerns BT-549 breast.
Assay [16] deals with LXFL 529 NSCLC.

The results in this text go back to PubChem BioAssay (NCI).

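Assay format: 96-well plates, 48-hour exposure. The concentration for full growth arrest is given as TGI.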 Bounds are passed on as bounds.

For the compound `C=CC[C@@]1(C#N)C[C@H](C[C@]2(C#N)C[C@H](CCl)OC(C)(C)O2)OC(C)(C)O1`, the TGI in [1], in assay [2], in [3], in [4], in assay [5] and in assay [6] was more than 100 µM each time. Further, the TGI in assay [7], in [8], in assay [9], in assay [10] and in assay [11] was more than 100 µM in each case.
On to `S=C1NC2=C(COC/C2=C\c2ccccc2Cl)C(c2ccccc2Cl)N1` (configuration not stated), for which the TGI in assay [1], in [2], in assay [12], in [13], in assay [5] and in assay [7] was more than 100 µM each time. For the same compound, the TGI in assay [8] was more than 100 µM; in assay [9] it was 33.5 µM; in [10], 34.6 µM; in assay [14], 63.1 µM; in assay [15], more than 100 µM.
Take `O=C(Cc1ccccc1)NN1C(=O)C(Cl)C1c1ccccc1` (configuration not stated): the TGI is more than 100 µM in assay [1]; more than 100 µM in [2]; more than 100 µM in assay [3]; more than 100 µM in assay [4]; more than 100 µM in assay [5]; 50.5 µM in [16]. The TGI in assay [7] is 52.8 µM; in assay [8], 3.93 µM; in [9], more than 100 µM; in assay [10], more than 100 µM; in assay [11] it was more than 100 µM.
As for `C[N+](C)(N)Cc1csc(-c2ccc(Cl)cc2)n1`, the TGI in [1], in assay [2], in assay [12], in assay [13], in assay [5] and in assay [7] was more than 100 µM throughout. Moreover, the TGI in assay [8], in [9], in assay [10], in assay [14] and in assay [15] was more than 100 µM each time.
Regarding `O=c1[nH]c2cc([N+](=O)[O-])c(N(CCO)CCO)c([N+](=O)[O-])c2[nH]1`, the TGI in [1] was more than 100 µM; in assay [2], more than 100 µM; in assay [12], 80.5 µM; in assay [13], more than 100 µM; in assay [5] it was 49.4 µM; in assay [7], 98.1 µM. For the same compound, the TGI in assay [8] was more than 100 µM; in [9] it was 51.8 µM; in assay [10], 39.7 µM; in [14], more than 100 µM; in assay [15], 51.7 µM.
For the compound `COC(=O)C1=C2Nc3ccccc3C23CCN2C(O)C4(CC5CC67CCOC6CCN6CCC8(c9cccc(OC)c9N(C4)C58O)C67)C4OCCC4(C1)C23` (configuration not stated), the TGI in [1] was more than 100 µM; in assay [2] it was more than 100 µM; in assay [12], 55.7 µM; in assay [13] it was more than 100 µM; in assay [5], more than 100 µM; in [7], more than 100 µM. For the same compound, the TGI in assay [8], in assay [9], in assay [10], in assay [14] and in assay [15] was more than 100 µM throughout.
Regarding `COc1cc(C2c3cc4c(cc3OC(N3CCOCC3)C2C)OCO4)cc(OC)c1OC` (configuration not stated), the TGI is more than 40.3 µM in assay [1]; more than 100 µM in [2]; more than 100 µM in assay [12]; more than 100 µM in [13]; 1.22 µM in [5]; more than 23.7 µM in assay [7]. The TGI is 9.61 µM in assay [8]; more than 71.3 µM in [9]; 6.78 µM in assay [10]; more than 77 µM in assay [14]; 65.8 µM in [15].
For `O=C(O)C1Cc2ccccc2OC1=O` (configuration not stated), the TGI in [1], in assay [2], in [12], in [13], in assay [5] and in assay [7] was more than 100 µM throughout. For the same compound, the TGI in [8], in assay [9], in assay [10], in [14] and in assay [15] was more than 100 µM each time.
For `CCC(=O)n1c(=O)n(-c2ccc([N+](=O)[O-])cc2)c(=O)n1C(=O)CC`, the TGI in [1], in assay [2], in [12], in assay [13], in assay [5] and in assay [7] was more than 100 µM each time. For the same compound, the TGI in assay [8], in [9], in [10], in [14] and in assay [15] was more than 100 µM in each case.
Turning to `Nc1ccc(S(=O)(=O)c2ccc(N=[N+]([O-])c3ccc(S(=O)(=O)c4ccc(N)cc4)cc3)cc2)cc1`, the TGI in [1] is more than 100 µM; in assay [2], more than 45.9 µM; in assay [12] it was more than 100 µM; in assay [13] it was more than 100 µM; in assay [5] it was 57.8 µM; in assay [7], more than 100 µM. Also, the TGI in assay [8] was more than 74 µM; in assay [9], more than 100 µM; in assay [10], more than 100 µM; in assay [14] it was more than 100 µM; in assay [15], more than 65.6 µM.
Turning to `COc1cc(C(c2cc(OC)c(OC)c(OC)c2)N2C(=O)CCC2C(=O)O)cc(OC)c1OC` (configuration not stated), the TGI in [1], in [2], in assay [12], in [13], in assay [5] and in assay [7] was more than 100 µM each time. Also, the TGI in assay [8], in assay [9], in assay [10], in [14] and in [15] was more than 100 µM throughout.
Regarding `O=C1O[C@H](COC(=O)c2ccccc2)[C@@H](OC(=O)c2ccccc2)C=C1OC(=O)c1ccccc1`, the TGI in [1] turned out to be 39.6 µM; in assay [2], 36.8 µM; in assay [12], 54.6 µM; in assay [13], 62.7 µM; in assay [5], 31.4 µM; in assay [7], 71.8 µM. Also, the TGI in assay [8] was determined as 37.8 µM; in assay [9], 38.3 µM; in assay [10] it was 36.2 µM; in assay [14] it was 91.3 µM; in assay [15], 43.7 µM.
Regarding `CCC(c1nc2ccccc2c(=O)n1NC(=O)C(C)(C)C)C1(O)CCCCC1` (configuration not stated), the TGI in assay [1], in assay [2], in assay [12], in assay [13], in assay [5] and in assay [7] was more than 100 µM throughout. Also, the TGI in assay [8], in [9], in assay [10], in [14] and in assay [15] was more than 100 µM in each case.
Consider `Cn1c2cc(Cl)ccc2c2ccc3c(c21)C(=O)C=CC3=O`, for which the TGI in assay [1] was more than 57.5 µM; in assay [2] it was more than 82.6 µM; in assay [12] it was 55.6 µM; in assay [13] it was more than 82 µM; in assay [5] it was 40 µM; in [7] it was 23.7 µM. The TGI in assay [8] was 22.9 µM; in assay [9], 20.7 µM; in [10], more than 100 µM; in assay [14] it was 50.6 µM; in assay [15], more than 63.8 µM.
Turning to `COC(=O)C(Cc1ccccc1)NC(=O)C(CCCN=C(N)N)NC(=O)OCc1ccccc1` (configuration not stated), the TGI in assay [1], in [2], in [12], in assay [13], in assay [5] and in [7] was more than 100 µM throughout. Further, the TGI in assay [8], in [9], in [10], in [14] and in [15] was more than 100 µM in each case.
On to `CN(C)C(=O)CO/N=C1/C(c2c(O)[nH]c3ccccc23)=Nc2ccccc21`, for which the TGI is more than 100 µM in assay [1]; more than 100 µM in assay [2]; more than 100 µM in [12]; more than 100 µM in assay [13]; 58.6 µM in [5]; more than 100 µM in assay [7]. Further, the TGI in assay [8], in assay [9], in assay [10], in [14] and in [15] was more than 100 µM in each case.
In the case of `CC1(C)OCC(C2OC(=O)C(OCc3ccccc3)=C2OCc2ccccc2)O1` (configuration not stated), the TGI in [1] is more than 100 µM; in assay [2], more than 100 µM; in assay [12], more than 100 µM; in [13], 78.1 µM; in assay [5], more than 100 µM; in assay [7] it was 76.5 µM. The TGI is 78.4 µM in [8]; 50.6 µM in [9]; 32.3 µM in [10]; more than 100 µM in assay [14]; 93.2 µM in assay [15].
For `O=C(Nc1ccc(Cl)cc1)c1cc(S(=O)(=O)NC2=NC(c3ccccc3)c3cc(Cl)ccc3N2)c(SSc2cc(Cl)c(C(=O)Nc3ccc(Cl)cc3)cc2S(=O)(=O)NC2=NC(c3ccccc3)c3cc(Cl)ccc3N2)cc1Cl` (configuration not stated), the TGI in assay [1], in assay [2], in assay [12], in assay [13], in assay [5] and in assay [7] was more than 100 µM each time. Further, the TGI in assay [8], in [9], in assay [10], in [14] and in [15] was more than 100 µM throughout.
In the case of `CC(=O)O[C@@H]1CC2[C@@H](CCC3Cc4nc5c(nc4C[C@@]32C)CC2CC[C@@H]3C(CC[C@@]4(C)C3CC[C@@H]4C(C)CCCC(C)C)[C@@]2(C)C5)C2C[C@@H]3OC4(CCC(C)CO4)C(C)[C@@H]3[C@]21C` (some centres not stated), the TGI in [1] is more than 100 µM; in assay [2] it was more than 100 µM; in assay [12], more than 100 µM; in assay [13], more than 100 µM; in [5] it was 50.3 µM; in assay [7], more than 100 µM. For the same compound, the TGI in assay [8], in assay [9], in assay [10], in assay [14] and in assay [15] was more than 100 µM in each case.
For `CCC(C)N1CN(c2ccccc2)C2(CCN(CCCC(=O)c3ccc(F)cc3)CC2)C1=O` (configuration not stated), the TGI in assay [1] was 17.9 µM; in [2] it was 29 µM; in assay [12] it was 15.9 µM; in assay [13] it was 23.1 µM; in assay [5], 30 µM; in assay [7], 31.5 µM. The TGI worked out at 20.6 µM in assay [8]; 0.348 µM in assay [9]; 9.61 µM in assay [10]; 11.5 µM in [14]; 26 µM in assay [15].
For `CCOc1ccc(-n2c(=O)n3c(Nc4ccc(Cl)cc4)nc4c(c(=O)n(C)c(=O)n4C)n3c2=O)cc1`, the TGI was 42 µM in assay [1]; more than 100 µM in assay [2]; more than 100 µM in assay [12]; more than 100 µM in assay [13]; 43.2 µM in [5]; 61.4 µM in assay [7]. The TGI in [8] is 32.8 µM; in assay [9], 46.4 µM; in assay [10] it was 36 µM; in assay [14], more than 100 µM; in assay [15], 64.3 µM.
Consider `OC(C1CCCC1=N/N=C1/CCCC1C(O)(C(F)(F)Cl)C(F)(F)Cl)(C(F)(F)Cl)C(F)(F)Cl` (configuration not stated), for which the TGI in assay [1], in assay [2], in [12], in assay [13], in assay [5] and in [7] was more than 10 µM throughout. Besides, the TGI in [8], in assay [9], in [10], in assay [14] and in assay [15] was more than 10 µM each time.
